From US8809498B2, “Pepstatin A derivatives” (priority 2008, dated 2014) come the findings set out here.

Non-standard residues stand in square brackets, D forms with d. Residues, ends and D or L forms follow the SMILES beside them. *: point of attachment. Phe(3-F) = N[C@@H](Cc1cccc(F)c1)C(=O)O; Phe(2-F) = N[C@@H](Cc1ccccc1F)C(=O)O; Sta = CC(C)C[C@H](N)[C@@H](O)CC(=O)O; Isovaleryl = CC(C)CC(=O)*; Nle = CCCC[C@H](N)C(=O)O

Format in all cases: biochemical
In experiment [1] the target is Sap3 of Candida albicans (Candida albicans, UniProt P0CY29). In words: Inhibition of proteolytic activity of Sap3 (resorufin-marked casein, fluorescence). The procedure:
(§1) For this purpose, that inhibitor concentration was determined in vitro at which the proteolytic activity of the enzyme or its velocity of metabolizing a substrate, respectively, was reduced for 50%.
(§2) The proteolytic activity of the tested Saps was determined at the pH optimum of those Saps. Resorufin-marked casein was used as substrate. Proteolysis of casein can be detected by an increase in fluorescence due to released resorufin (a fluorescence marker) by proteolysis.
(§3) Sap1, Sap3 and Sap6 of Candida albicans were independently dissolved in 2-(N-morpholino)ethanesulfonic acid (MES) having a concentration of 10 mmol/l and a pH of 6.5 resulting in enzyme solutions having a Sap concentration of 100 mmol/l. After one hour incubation at room temperature, 80 μl of a substrate solution comprising resorufin-marked casein in a sodium citrate buffer having a concentration of 500 mmol/l and a pH of 3.5 (in case of Sap3), 4.5 (in case of Sap1) and 5.0 (in case of Sap6) were added to 20 μl of enzyme solution. The resulting Sap concentration was 5 nmol/l. The resulting casein concentration was chosen such that the Saps could work in excess of substrate. Different Sap inhibitors were added, resulting in a final inhibitor concentration of 1 nmol/1, 2 nmol/1, 5 nmol/1, 10 nmol/l, nmol/l or 50 nmol/l in each case. One enzyme-substrate sample was left without addition of inhibitor. All experiments were performed in triplicate.
(§4) The mixture of enzyme and substrate or of enzyme, substrate and inhibitor was incubated at 37° C. under agitation at 300 rpm (rounds per minute) for 60 min in each case. Afterwards, 20 μl of a trichloroacetic acid solution (30%, w/v) were added. The mixture was placed on ice for 5 minutes and centrifuged afterwards for 3 min at 6000 rpm. The supernatant was removed.
(§5) To carry out fluorescence measurements, 100 μl of the supernatant were mixed with 100 μl Tris-HCl (trishydroxymethylaminomethane-HCl) having a concentration of 1 mol/l and a pH of 10.0. The fluorescence of this mixture was measured directly after adding Tris-HCl using an excitation wavelength of 530 nm and an emission wavelength of 590 nm on a CytoFluor 2350 apparatus (Millipore, Bedford, Mass., USA), wherein sensitivity was set to 2 and bandwidth was set to 7.
(§6) The average of three independent fluorescence measurements was calculated. The fluorescence of enzyme without inhibitor (i.e. inhibitor concentration of 0 nmol/l) was set to 100% enzyme activity. The activity of inhibited enzyme was calculated accordingly from the fluorescence of inhibited enzyme with respect to fluorescence of enzyme without inhibitor. Finally, the enzyme activity was plotted against the inhibitor concentration and the IC50 value was determined.

Experiment [2] has as its target Sap1 of Candida albicans (Candida albicans, UniProt P0CY27). Kind of experiment: Inhibition of proteolytic activity of Sap1 (resorufin-marked casein, fluorescence). The procedure:
as §1, §2, §3, §4, §5, §6

Experiment [3] has as its target Sap5 (Candida albicans, UniProt P43094). Kind of experiment: Inhibition of proteolytic activity of Sap5. The procedure: as §1, §2, §4, §5, §6
The subject of experiment [4] is Saps of Candida albicans. In words: Overall Sap inhibition (summary of table 1). As to conditions: table 1 summary. How it is done: as §1, §2
as §3, with “Different Sap inhibitors were added, resulting in a final inhibitor concentration of 1 nmol/1, 2 nmol/1, 5 nmol/1, 10 nmol/l, nmol/l or 50 nmol/l in each case. One enzyme-substrate sample was left without addition of inhibitor. All experiments were performed in triplicate.” left out
as §5, §6

For experiment [5], the target named is Sap6 of Candida albicans (Candida albicans, UniProt Q5AC08). In words: Inhibition of proteolytic activity of Sap6 (resorufin-marked casein, fluorescence). The procedure: as §1, §2, §3, §4, §5, §6
Chain of Sap6 of Candida albicans (Q5AC08 77-418): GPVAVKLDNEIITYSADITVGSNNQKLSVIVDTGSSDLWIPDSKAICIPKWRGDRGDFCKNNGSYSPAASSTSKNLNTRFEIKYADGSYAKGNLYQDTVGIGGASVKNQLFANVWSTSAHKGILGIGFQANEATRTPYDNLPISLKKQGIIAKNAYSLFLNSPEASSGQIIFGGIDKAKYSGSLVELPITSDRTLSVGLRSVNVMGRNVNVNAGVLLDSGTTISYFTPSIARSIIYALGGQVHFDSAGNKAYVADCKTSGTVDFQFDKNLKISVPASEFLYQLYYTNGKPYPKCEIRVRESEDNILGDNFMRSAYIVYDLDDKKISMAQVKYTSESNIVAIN

Chain of Sap1 of Candida albicans (P0CY27 51-391): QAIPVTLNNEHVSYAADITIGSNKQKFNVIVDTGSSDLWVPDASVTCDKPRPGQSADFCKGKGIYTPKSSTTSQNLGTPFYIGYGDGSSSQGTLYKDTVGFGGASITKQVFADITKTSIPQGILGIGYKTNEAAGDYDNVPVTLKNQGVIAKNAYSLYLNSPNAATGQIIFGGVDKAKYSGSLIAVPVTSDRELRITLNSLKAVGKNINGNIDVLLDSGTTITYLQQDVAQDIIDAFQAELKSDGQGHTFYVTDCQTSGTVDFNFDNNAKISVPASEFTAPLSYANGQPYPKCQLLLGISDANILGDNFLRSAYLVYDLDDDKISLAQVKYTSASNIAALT
Chain of Sap5 (P43094 77-418): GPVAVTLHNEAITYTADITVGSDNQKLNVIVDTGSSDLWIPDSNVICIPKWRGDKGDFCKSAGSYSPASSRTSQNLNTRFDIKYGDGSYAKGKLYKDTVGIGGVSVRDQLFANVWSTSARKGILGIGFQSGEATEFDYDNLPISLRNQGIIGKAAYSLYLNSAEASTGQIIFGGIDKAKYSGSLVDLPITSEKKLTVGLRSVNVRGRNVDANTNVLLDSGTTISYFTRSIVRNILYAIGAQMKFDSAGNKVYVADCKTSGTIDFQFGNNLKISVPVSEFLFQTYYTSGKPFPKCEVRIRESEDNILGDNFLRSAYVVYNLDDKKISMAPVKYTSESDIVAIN
Chain of Sap3 of Candida albicans (P0CY29 59-398): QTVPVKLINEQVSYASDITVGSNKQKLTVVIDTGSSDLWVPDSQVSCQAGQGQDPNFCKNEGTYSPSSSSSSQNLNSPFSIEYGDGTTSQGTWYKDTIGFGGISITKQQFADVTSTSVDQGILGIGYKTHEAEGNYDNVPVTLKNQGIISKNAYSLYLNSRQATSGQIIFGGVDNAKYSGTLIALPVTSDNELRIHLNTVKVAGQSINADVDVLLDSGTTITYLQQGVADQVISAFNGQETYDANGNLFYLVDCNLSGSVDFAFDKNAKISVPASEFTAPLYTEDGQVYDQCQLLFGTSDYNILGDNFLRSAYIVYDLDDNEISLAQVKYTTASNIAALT

Broadly, the IC50 is the concentration at which inhibition is half-maximal. Low readings indicate inhibition by little substance, high ones a need for much substance. With `CC(C)CN(C[C@@H](O)[C@H](Cc1ccccc1)NC(=O)O[C@H]1CCOC1)S(=O)(=O)c1ccc(N)cc1` [Amprenavir, reference compound], the IC50 is roughly 20 µM in experiment [1], roughly 5 µM in experiment [2], roughly 33 µM in experiment [3] and greater than 50 µM in experiment [5]. Moreover, the “IC50 values, range” value in experiment [4] was “in the range of micromole per litre”.

Regarding `Cc1cccc(C)c1OCC(=O)N[C@@H](Cc1ccccc1)[C@@H](O)C[C@H](Cc1ccccc1)NC(=O)[C@H](C(C)C)N1CCCNC1=O` [Lopinavir, reference compound], the IC50 in experiment [1] was greater than 312 µM; in experiment [2], 312 µM; in experiment [3], greater than 312 µM; in experiment [5], greater than 312 µM. Also, in experiment [4], the “IC50 values, range” value is “in the range of micromole per litre”.

As for `CC(C)CC(=O)N[C@H](C(=O)N[C@@H](CCCCN)C(=O)N[C@@H](CC(C)C)[C@@H](O)CC(=O)N[C@@H](C)C(=O)N[C@@H](CC(C)C)[C@@H](O)CC(=O)O)C(C)C` [P2(Lys)-pepstatin, (N-Iva-Val)-Lys-Sta-Ala-Sta] (Isovaleryl-VK[Sta]A[Sta]-OH), the IC50 is roughly 0.1 µM in experiment [1], greater than 0.5 µM in experiment [2], roughly 0.02 µM in experiment [3] and 0.05 µM in experiment [5].

In the case of `CCCC[C@H](NC(=O)[C@@H](NC(=O)CC(C)C)C(C)C)C(=O)N[C@@H](CC(C)C)[C@@H](O)CC(=O)N[C@@H](C)C(=O)N[C@@H](CC(C)C)[C@@H](O)CC(=O)O` [P2(Nle)-pepstatin, (N-Iva-Val)-N/e-Sta-Ala-Sta] (Isovaleryl-V[Nle][Sta]A[Sta]-OH), the IC50 in experiment [1] was less than 0.005 µM; in experiment [2], roughly 0.01 µM; in experiment [3], 0.01 µM; in experiment [5], roughly 0.015 µM.

For `CC(C)CC(=O)N[C@@H](Cc1cccc(F)c1)C(=O)N[C@H](C(=O)N[C@@H](CC(C)C)[C@@H](O)CC(=O)N[C@@H](C)C(=O)N[C@@H](CC(C)C)[C@@H](O)CC(=O)O)C(C)C` [P3(m-FPhe)-pepstatin, (N-Iva-mFPhe)-Val-Sta-Ala-Sta] (Isovaleryl-[Phe(3-F)]V[Sta]A[Sta]-OH), the IC50 was roughly 0.01 µM in experiment [1], 0.01 µM in experiment [2], roughly 0.01 µM in experiment [3] and 0.01 µM in experiment [5].

As for `CC(C)CC(=O)N[C@@H](Cc1ccccc1F)C(=O)N[C@H](C(=O)N[C@@H](CC(C)C)[C@@H](O)CC(=O)N[C@@H](C)C(=O)N[C@@H](CC(C)C)[C@@H](O)CC(=O)O)C(C)C` [P3(o-FPhe)-pepstatin, (N-Iva-oFPhe)-Val-Sta-Ala-Sta] (Isovaleryl-[Phe(2-F)]V[Sta]A[Sta]-OH), the IC50 in experiment [1] was roughly 0.02 µM; in experiment [2] it was roughly 0.02 µM; in experiment [3], roughly 0.05 µM; in experiment [5], roughly 0.1 µM.

As for `CC(C)CC(=O)N[C@H](C(=O)N[C@H](C(=O)N[C@@H](CC(C)C)[C@@H](O)CC(=O)N[C@@H](C)C(=O)N[C@@H](CC(C)C)[C@@H](O)CC(=O)O)C(C)C)C(C)C` [Pepstatin A] (Isovaleryl-VV[Sta]A[Sta]-OH), the half-inhibitory concentration (IC50) was roughly 0.001 µM in experiment [1], roughly 0.007 µM in experiment [2], 0.005 µM in experiment [3] and roughly 0.007 µM in experiment [5].

`CC(C)c1nc(CN(C)C(=O)N[C@H](C(=O)N[C@@H](Cc2ccccc2)C[C@H](O)[C@H](Cc2ccccc2)NC(=O)OCc2cncs2)C(C)C)cs1` [Ritonavir]: in experiment [4], the “IC50 values, range” value was “in the range of micromole per litre”.
